# Measurements: patent US10443018B2, “Phenyl based compounds substituted with aldehyde moieties and their use in perfumery” (GIVAUDAN SA, priority 2014, dated 2019)
# Experiments:
# mice = details: mouse, in vivo; cited from earlier work
# [1] = system: Cryopreserved hepatocytes from male rats (Sprague Dawley); assay: In vitro metabolism study in rat hepatocytes in suspension (GC-MS); details: for Residual conc.: male, Sprague Dawley, rat, 4 h, 100 μM
# Method: In order to study in vitro metabolism in rat hepatocytes, Lilial™ and compounds of the present invention may be incubated in the presence of rat hepatocytes in suspension. Reduction in the concentration of Lilial™ and the compounds of the present invention and formation of any of the corresponding benzoic acid derivatives may be analysed by GC-MS.
# Cryopreserved hepatocytes from male rats (Sprague Dawley; Lifetechnologies) were defrozen, washed in Cyropreserved Hepatocytes Recovery Medium (CHRM; Lifetechnologies) and suspended in Williams E Medium (WEM; Lifetechnologies). Lilial™, or the compounds of the present invention (final concentration: 100 μM) were added to the cells (1×10^6 viable cells/ml) and suspensions were incubated up to 4 hours at 37° C. on a shaker in duplicate. Metabolism of testosterone was monitored as positive control. Decrease of the test compounds and formation of the corresponding benzoic acid derivative was determined by GC-MS analysis of methyl esters formed after derivatisation with trimethylsilyl diazomethane (Sigma-Aldrich) in methanol. The test compounds react with diazomethane yielding a methyl ketone which was used for the quantification of Lilial™ and the compound of formula (I). Metabolism was stopped with ice cold 1 M HCl, samples were extracted with tert-butyl methyl ether (MTBE) and analysed by GC-MS. Incubations containing testosterone as control were also stopped with ice cold 1 M HCl, centrifuged to separate the cells, filtrated and the decrease of testosterone analysed by LC-MS.
# [2] = system: reproductive organs of male rats; details: rat, in vivo; cited from earlier work
# [3] = system: reproductive organs of dogs; details: dog, in vivo; cited from earlier work
# primates = details: cited from earlier work
# guinea-pigs = details: guinea pig, in vivo; cited from earlier work
smiles,measurement,setting,value
"CC(C=O)Cc1ccc(C(C)(C)C)cc1 (stereo not drawn) [Lilial, 3-(4-tert-butylphenyl)-2-methylpropanal]",effects in toxicity studies,mice,No effects
same,Residual conc.,[1],0 µM
same,toxic effects on the reproductive organs,[2],toxic effects
same,toxic effects on the reproductive organs,[3],toxic effects
same,effects in toxicity studies,primates,No effects
same,effects in toxicity studies,guinea-pigs,No effects
C[C@]12CC[C@H]3[C@@H](CCC4=CC(=O)CC[C@@]43C)[C@@H]1CC[C@@H]2O [testosterone],decrease of testosterone (positive control),"[1]; rat hepatocytes, LC-MS",rapid decrease
Cc1ccc(CCC=O)c(CC(C)C)c1,Residual conc.,[1],0 µM
"Cc1cc(CCC=O)cc(CC(C)C)c1 [Compound 1, 3-(3-Isobutyl-5-methylphenyl)propanal]",Residual conc.,[1],1.5 µM
